For 29 compounds, Ki results are on record in patent US20240254115A1 (ACONDICIONAMIENTO TARRASENSE, priority 2021, published 2024).

One experiment has as its target T1, human σ1 receptor (Homo sapiens, UniProt Q99720).
T1 construct: expressed in transfected cells; host or cells: HEK-293
Kind of experiment: Human σ1 receptor radioligand assay. Particulars: transfected HEK-293 membranes, 5 nM [3H](+)-pentazocine, 37° C. 120 minutes; + may also stand for 1-50% inhibition at 1 or 10 μM; read-out: Binding σ-1 Ki. In outline: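 Membranes (7 μg) were incubated with 5 nM [3H](+)-pentazocine in 50 mM Tris-HCl pH 8 for 120 min at 37° C. Non-specific binding was defined with 10 μM haloperidol. Values are % inhibition at 1 or 10 μM or Ki from five concentrations, read by filtration and scintillation counting.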

In the next experiment the target is T2, human σ2/TMEM97 receptor (Homo sapiens, UniProt Q5BJF2).
T2 construct: expressed in transfected cells; host or cells: HEK-293
T2 sequence (Q5BJF2 whole entry): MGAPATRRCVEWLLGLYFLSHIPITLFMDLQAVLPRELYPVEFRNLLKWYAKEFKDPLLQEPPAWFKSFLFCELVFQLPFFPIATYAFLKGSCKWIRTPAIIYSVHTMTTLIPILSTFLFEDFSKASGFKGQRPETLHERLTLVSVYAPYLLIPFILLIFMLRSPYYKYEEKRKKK
Kind of experiment: Binding assay to human σ2/TMEM97 receptor. Particulars: transfected HEK-293 membranes, 10 nM [3H]-DTG, 25° C. 120 minutes; + may also stand for 1-50% inhibition at 1 or 10 μM; read-out: Binding σ-2 Ki. Summed up:
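Membranes from transfected HEK-293 cells (15 µg) were incubated with 10 nM [3H]-DTG in 50 mM Tris-HCl pH 8.0 for 120 min at 25 °C, with 10 µM haloperidol defining non-specific binding. Filtration and scintillation counting followed. Compounds tested as % inhibition at 1 or 10 µM, or at five concentrations for Ki.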

T1 sequence (Q99720 whole entry): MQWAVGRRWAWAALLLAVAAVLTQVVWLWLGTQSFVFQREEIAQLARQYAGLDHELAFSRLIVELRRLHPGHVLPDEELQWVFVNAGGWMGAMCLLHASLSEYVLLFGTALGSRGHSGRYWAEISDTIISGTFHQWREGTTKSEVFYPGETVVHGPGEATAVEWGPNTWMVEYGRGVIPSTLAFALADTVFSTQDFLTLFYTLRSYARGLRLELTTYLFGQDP

The term Ki denotes a measure of affinity in units of concentration, obtained from inhibition or displacement. With `O=S(=O)(N[C@H]1CCN(Cc2cccc(F)c2)C1)c1ccc(N2CCOCC2)nc1` [Example 35, (S)—N-(1-(3-Fluorobenzyl)pyrrolidin-3-yl)-6-morpholinopyridine-3-sulfonamide], the inhibition constant (Ki) on human σ1 receptor is less than 100 nM; at human σ2/TMEM97 receptor, greater than 1000 nM.
On to `CCC(=O)N(C)c1ccc(S(=O)(=O)N2CCC3(CCN(CCC(C)(C)C)CC3)CC2)cn1` [Example 105, N-(5-((9-(3,3-Dimethylbutyl)-3,9-diazaspiro[5.5]undecan-3-yl)sulfonyl)pyridin-2-yl)-N-methylpropionamide], for which the inhibition constant Ki at human σ1 receptor was 100 to 500 nM; on human σ2/TMEM97 receptor it was less than 100 nM.
The matching figures for `CC(C)(C)CCN1CCC2(CCCN(S(=O)(=O)c3ccc(N4CCOCC4=O)nc3)C2)CC1` [Example 120, 4-(5-((9-(3,3-Dimethylbutyl)-2,9-diazaspiro[5.5]undecan-2-yl)sulfonyl)pyridin-2-yl)morpholin-3-one]: 100 to 500 nM and less than 100 nM.
The matching figures for `CC(=O)N(C)c1ccc(S(=O)(=O)N2CCC3(CCN(CCC(C)(C)C)CC3)CC2)cn1` [Example 103, N-(5-((9-(3,3-Dimethylbutyl)-3,9-diazaspiro[5.5]undecan-3-yl)sulfonyl)pyridin-2-yl)-N-methylacetamide]: 100 to 500 nM and less than 100 nM.
The matching figures for `COc1ccc(CNC[C@@H]2CCCN(S(=O)(=O)c3ccc(N4CCOCC4)nc3)C2)cn1` [Example 34, (S)-1-(6-Methoxypyridin-3-yl)-N-((1-((6-morpholinopyridin-3-yl)sulfonyl)piperidin-3-yl)methyl) methanamine]: 500 to 1000 nM and less than 100 nM.
As for `O=S(=O)(c1ccc(N2CCOCC2)nc1)N1CCC2(CCN(Cc3ccccc3)CC2)C1` [Example 45, 4-(5-((8-Benzyl-2,8-diazaspiro[4.5]decan-2-yl)sulfonyl)pyridin-2-yl)morpholine], the Ki at human σ1 receptor lay in the range of 500 to 1000 nM; at human σ2/TMEM97 receptor, 100 to 500 nM.
`CN(Cc1ccccc1)[C@H]1CC[C@H](NS(=O)(=O)c2ccc(N3CCC4(CCOC4)CC3)nc2)CC1` [Example 31]: the Ki on human σ1 receptor and on human σ2/TMEM97 receptor was less than 100 nM throughout.
Consider `CN([C@@H]1CCN(Cc2ccccc2)C1)S(=O)(=O)c1ccc(N2CCOCC2)nc1` [Example 5, (R)-N-(1-Benzylpyrrolidin-3-yl)-N-methyl-6-morpholinopyridine-3-sulfonamide], for which the Ki is less than 100 nM on human σ1 receptor and greater than 1000 nM at human σ2/TMEM97 receptor.
The matching figures for `CC(C)CN1CCC2(CC1)CCN(S(=O)(=O)c1ccc(C(F)(F)F)nc1)CC2` [Example 91, 3-Isobutyl-9-((6-(trifluoromethyl)pyridin-3-yl)sulfonyl)-3,9-diazaspiro[5.5]undecane]: 500 to 1000 nM and less than 100 nM.
Regarding `CN(Cc1cccc(F)c1)[C@H]1CC[C@H](NS(=O)(=O)c2ccc(N3CCOCC3)nc2)CC1` [Example 57, N-((1r,4r)-4-((3-Fluorobenzyl) (methyl)amino)cyclo-hexyl)-6-morpholinopyridine-3-sulfonamide], the figures for the inhibitory constant (Ki) on human σ1 receptor and at human σ2/TMEM97 receptor were greater than 1000 nM and less than 100 nM, respectively.
On the same counts, the results for `CN(Cc1cccnc1)[C@H]1CC[C@H](NS(=O)(=O)c2ccc(N3CCOCC3)nc2)CC1` [Example 59, N-((1r,4r)-4-(Methyl(pyridin-3-ylmethyl)amino)cyclohexyl)-6-morpholinopyridine-3-sulfonamide] are greater than 1000 nM and greater than 1000 nM.
On the same counts, the results for `O=S(=O)(c1ccc(N2CCC(F)(F)CC2)nc1)N1CCC2(CCN(CC3CCOCC3)CC2)C1` [Example 83, 2-((6-(4,4-Difluoropiperidin-1-yl)pyridin-3-yl)sulfonyl)-8-((tetrahydro-2H-pyran-4-yl)methyl)-2,8-diazaspiro[4.5]decane] are less than 100 nM and less than 100 nM.
The matching figures for `O=S(=O)(N[C@H]1CC[C@H](NCc2ccccc2)CC1)c1ccc(N2CCOCC2)nc1` [Example 51, N-((1 r,4r)-4-(Benzylamino)cyclohexyl)-6-morpholinopyridine-3-sulfonamide]: greater than 1000 nM and 100 to 500 nM.
In the case of `O=C1OCCN1c1ccc(S(=O)(=O)N2CCCC3(CCN(CC4CCOCC4)CC3)C2)cn1` [Example 158, 3-(5-((9-((Tetrahydro-2H-pyran-4-yl)methyl)-2,9-diazaspiro[5.5]undecan-2-yl)sulfonyl)pyridin-2-yl)oxazolidin-2-one], the inhibitory constant (Ki) at human σ1 receptor and at human σ2/TMEM97 receptor was less than 100 nM in each case.
For the compound `CC(C)(C)CCN1CCC2(CCCN(S(=O)(=O)c3ccc(N4CCCC4=O)nc3)C2)CC1` [Example 121, 1-(5-((9-(3,3-Dimethylbutyl)-2,9-diazaspiro[5.5]undecan-2-yl)sulfonyl)pyridin-2-yl)pyrrolidin-2-one], the inhibitory constant (Ki) at human σ1 receptor and on human σ2/TMEM97 receptor was less than 100 nM throughout.
With `N#Cc1ccc(CN2CC[C@@H](NS(=O)(=O)c3ccc(N4CCOCC4)nc3)C2)cc1` [Example 37, (R)-N-(1-(4-Cyanobenzyl)pyrrolidin-3-yl)-6-morpholinopyridine-3-sulfonamide], the Ki is less than 100 nM on human σ1 receptor and greater than 1000 nM at human σ2/TMEM97 receptor.
Take `O=C1OCCN1c1ccc(S(=O)(=O)N2CCC3(CCN(Cc4ccccc4)CC3)CC2)cn1` [Example 135, 3-(5-((9-Benzyl-3,9-diazaspiro[5.5]undecan-3-yl)sulfonyl)pyridin-2-yl)oxazolidin-2-one]: the Ki at human σ1 receptor and at human σ2/TMEM97 receptor was less than 100 nM in each case.
As for `CN(Cc1ccccc1)[C@H]1CCN(S(=O)(=O)c2ccc(N3CCOCC3)nc2)C1` [Example 17, (S)-N-Benzyl-N-methyl-1-((6-morpholinopyridin-3-yl)sulfonyl)pyrrolidin-3-amine], the Ki at human σ1 receptor was less than 100 nM; on human σ2/TMEM97 receptor, greater than 1000 nM.
`CC(C)(C)CCN1CCC2(CCCN(S(=O)(=O)c3ccc(-c4ccncc4)nc3)C2)CC1` [Example 112, 2-([2,4′-Bipyridin]-5-ylsulfonyl)-9-(3,3-dimethylbutyl)-2,9-diazaspiro[5.5]undecane]: the inhibitory constant (Ki) on human σ1 receptor and on human σ2/TMEM97 receptor was less than 100 nM each time.
On to `CCc1ccc(S(=O)(=O)N2CCCC3(CCN(CCC(C)(C)C)CC3)C2)cn1` [Example 111, 9-(3,3-Dimethylbutyl)-2-((6-ethylpyridin-3-yl)sulfonyl)-2,9-diazaspiro[5.5]undecane], for which the Ki on human σ1 receptor and on human σ2/TMEM97 receptor was less than 100 nM in each case.
Regarding `O=S(=O)(c1ccc(N2CCOCC2)nc1)N1CCC[C@H](CNCc2ccc(O)nc2)C1` [Example 64, (R)-5-((((1-((6-Morpholinopyridin-3-yl)sulfonyl)piperidin-3-yl)methyl)amino)methyl)pyridin-2-ol], the Ki was greater than 1000 nM on human σ1 receptor and 100 to 500 nM at human σ2/TMEM97 receptor.
On the same counts, the results for `O=S(=O)(c1ccc(N2CCOCC2)nc1)N1CCC2(CC1)CN(Cc1ccccc1)C2` [Example 47, 4-(5-((2-Benzyl-2,7-diazaspiro[3.5]nonan-7-yl)sulfonyl)pyridin-2-yl)morpholine] are greater than 1000 nM and 100 to 500 nM.
The matching figures for `O=C1OCCN1c1ccc(S(=O)(=O)N2CCCC3(CCN(CC4CCOCC4)CC3)C2)nc1` [Example 127, 3-(6-((9-((Tetrahydro-2H-pyran-4-yl)methyl)-2,9-diazaspiro[5.5]undecan-2-yl)sulfonyl)pyridin-3-yl)oxazolidin-2-one]: less than 100 nM and less than 100 nM.
On the same counts, the results for `CC(C)(C)CCN1CCCC2(CCN(S(=O)(=O)c3ccc(N4CCOCC4)nc3)CC2)C1` [Example 75, 4-(5-((2-(3,3-Dimethylbutyl)-2,9-diazaspiro[5.5]undecan-9-yl)sulfonyl)pyridin-2-yl)morpholine] are less than 100 nM and less than 100 nM.
As to `N#Cc1ccc(CN2CCC3(CCCN(S(=O)(=O)c4ccc(N5CCOCC5)nc4)C3)CC2)cc1F` [Example 62, 2-Fluoro-4-((2-((6-morpholinopyridin-3-yl)sulfonyl)-2,9-diazaspiro[5.5]undecan-9-yl)methyl)benzonitrile], the inhibition constant (Ki) is 100 to 500 nM at human σ1 receptor and less than 100 nM at human σ2/TMEM97 receptor.
On the same counts, the results for `CC(C)(C)CCN1CCC2(CC1)CCN(S(=O)(=O)c1ccc(N3CCOCC3)nc1)C2` [Example 79, 4-(5-((8-(3,3-Dimethylbutyl)-2,8-diazaspiro[4.5]decan-2-yl)sulfonyl)pyridin-2-yl)morpholine] are 100 to 500 nM and less than 100 nM.
On the same counts, the results for `N#Cc1cc(CN2CCC3(CCCN(S(=O)(=O)c4ccc(N5CCOC5=O)nc4)C3)CC2)ccc1F` [Example 161, 2-Fluoro-5-((2-((6-(2-oxooxazolidin-3-yl)pyridin-3-yl)sulfonyl)-2,9-diazaspiro[5.5]undecan-9-yl)methyl)benzonitrile] are less than 100 nM and less than 100 nM.
On to `CC(C)(C)CCN1CCC2(CC1)CCN(S(=O)(=O)c1ccc(N3CCOC3=O)nc1)CC2` [Example 134, 3-(5-((9-(3,3-Dimethylbutyl)-3,9-diazaspiro[5.5]undecan-3-yl)sulfonyl)pyridin-2-yl)oxazolidin-2-one], for which the inhibition constant Ki at human σ1 receptor was 100 to 500 nM; on human σ2/TMEM97 receptor, less than 100 nM.
The matching figures for `N#Cc1cccc(CN2CC[C@H](NS(=O)(=O)c3ccc(N4CCOCC4)nc3)C2)c1` [Example 42, (S)-N-(1-(3-Cyanobenzyl)pyrrolidin-3-yl)-6-morpholinopyridine-3-sulfonamide]: 500 to 1000 nM and greater than 1000 nM.
